This note sets out measurements from ChEMBL document CHEMBL5038625, “Application of the dual-tail approach for the design and synthesis of novel Thiopyrimidine-Benzenesulfonamide hybrids as selective carbonic anhydrase inhibitors” (Eur J Med Chem, 2022).

One assay deals with Carbonic anhydrase 9 (Homo sapiens, UniProt Q16790). The experiment in a line: Inhibition of human CA9 preincubated for 15 mins by phenol red dye based stopped flow CO2 hydration assay.
The next assay relates to MCF7. The experiment in a line: Antiproliferative activity against human MCF7 cells assessed as reduction in cell viability incubated for 24 hrs by sulforhodamine B assay. Format: functional, cell-based. The conditions noted are these: MCF7, 24 h.
The next assay concerns T47D. The experiment in a line: Antiproliferative activity against human T47D cells assessed as reduction in cell viability incubated for 24 hrs by sulforhodamine B assay. Format: functional, cell-based.
For assay [1], the system named is MDA-MB-231. The experiment in a line: Antiproliferative activity against human MDA-MB-231 cells assessed as reduction in cell viability incubated for 24 hrs by sulforhodamine B assay. Particulars: MDA-MB-231, 24 h. It counts as functional, cell-based.
Another assay has as its system SF-539. The experiment in a line: Antiproliferative activity against human SF-539 cells assessed as cell growth inhibition at 10 uM incubated for 24 hrs by sulforhodamine B assay. The conditions noted are these: read-out: GI. It counts as functional.
For a further assay, the system named is K562. Put plainly: Antiproliferative activity against human K562 cells assessed as cell growth inhibition at 10 uM incubated for 24 hrs by sulforhodamine B assay. It counts as functional. The conditions noted are these: read-out: GI.
The next assay concerns SR. Put plainly: Antiproliferative activity against human SR cells assessed as cell growth inhibition at 10 uM incubated for 24 hrs by sulforhodamine B assay. Format: functional. The conditions noted are these: read-out: GI.
The next assay concerns NCI-H226. The experiment in a line: Antiproliferative activity against human NCI-H226 cells assessed as cell growth inhibition at 10 uM incubated for 24 hrs by sulforhodamine B assay. It counts as functional. The conditions noted are these: read-out: GI.
The test system of another assay is NCI-H522. Put plainly: Antiproliferative activity against human NCI-H522 cells assessed as cell growth inhibition at 10 uM incubated for 24 hrs by sulforhodamine B assay. It counts as functional. The conditions noted are these: read-out: GI.
A further assay has as its system UACC-62. The experiment in a line: Antiproliferative activity against human UACC-62 cells assessed as cell growth inhibition at 10 uM incubated for 24 hrs by sulforhodamine B assay. Particulars: read-out: GI. Format: functional.
Another assay relates to CAKI-1. Put plainly: Antiproliferative activity against human CAKI-1 cells assessed as cell growth inhibition at 10 uM incubated for 24 hrs by sulforhodamine B assay. It counts as functional. Particulars: read-out: GI.
The next assay has as its system UO-31. The experiment in a line: Antiproliferative activity against human UO-31 cells assessed as cell growth inhibition at 10 uM incubated for 24 hrs by sulforhodamine B assay. The conditions noted are these: read-out: GI. It counts as functional.
For assay [2], the system named is MDA-MB-231. Put plainly: Antiproliferative activity against human MDA-MB-231 cells assessed as cell growth inhibition at 10 uM incubated for 24 hrs by sulforhodamine B assay. Format: functional. Particulars: read-out: GI.

Turning to `NS(=O)(=O)c1cccc(Nc2cc(-c3ccccc3)nc(SCC(=O)c3ccc(Br)cc3)n2)c1`, on Carbonic anhydrase 9, the affinity corresponds to a Ki of 0.525 µM.
For the compound `O=c1[nH]cc(F)c(=O)[nH]1` [FLUOROURACIL], the results for the IC50 in the assay with MCF7, in the assay with T47D and with MDA-MB-231 [1] were 2.46 µM, 6.7 µM and 3.5 µM, respectively.
In turn, `NS(=O)(=O)c1cccc(Nc2cc(-c3ccccc3)nc(SCC(=O)c3ccccc3)n2)c1` registered an inhibitory constant (Ki) at Carbonic anhydrase 9 of 0.724 µM.
At Carbonic anhydrase 9, `NS(=O)(=O)c1ccc(Nc2cc(-c3ccccc3)nc(SCC(=O)c3ccccc3)n2)cc1` came in with a Ki of 0.0858 µM. Further, the IC50 with MCF7 worked out at 44.5 µM; in the assay with T47D, 44.4 µM; in the assay on MDA-MB-231 [1], 26 µM.
`COc1ccc(C(=O)CSc2nc(Nc3ccc(S(N)(=O)=O)cc3)c(C#N)c(C(C)C)n2)cc1` came in with a Ki at Carbonic anhydrase 9 of 0.0918 µM. Besides, the inhibition of growth at 10 µM was determined as 5.08% in the assay with SF-539; 10.9% in the assay with K562; 11.7% with SR; 7.41% with NCI-H226; 5.22% in the assay on NCI-H522; 8.47% with UACC-62. In addition, the values for the inhibition of growth at 10 µM in the assay with CAKI-1, with UO-31 and in the assay with MDA-MB-231 [2] were 5%, 16.5% and 5.52%, respectively. Besides, the values for the half-inhibitory concentration (IC50) in the assay on MCF7, with T47D and with MDA-MB-231 [1] were 19.8 µM, 60 µM and 50.4 µM, respectively.
The compound `COc1ccc(C(=O)CSc2nc(Nc3ccc(S(N)(=O)=O)cc3)c(C#N)c(-c3ccc(C)cc3)n2)cc1` displayed an inhibition constant Ki at Carbonic anhydrase 9 of 8.71 µM.
